Experiment [1] addresses NRAS Q61K (Homo sapiens, UniProt P01111+P62937, Q61K). The experiment in a line: Disruption of BRAF RBD interaction with Ras (FRET / MOA assay). Format: biochemical. As to conditions: read-out: NRAS Q61K FRET data IC50. The procedure: (§1) Compound is present in plate wells as a 10-point 3-fold dilution series starting at a final concentration of 30 μM. […] Compounds that facilitate disruption of a Ras:RAF complex are identified as those eliciting a decrease in the TR-FRET ratio relative to DMSO control wells.
(§2) Note—The following protocol describes a procedure for monitoring disruption of K-Ras G12C (GMP-PNP) binding to BRAF^RBD by a compound of the invention. This protocol may also be executed substituting other Ras proteins or nucleotides.
(§3) The purpose of this biochemical assay was to measure the ability of test compounds to facilitate ternary complex formation between a nucleotide-loaded K-Ras isoform and Cyclophilin A; the resulting ternary complex disrupts binding to a BRAF^RBD construct, inhibiting K-Ras signaling through a RAF effector. Data is reported as IC50 values.
(§4) Compound was present in plate wells as a 10-point 3-fold dilution series starting at a final concentration of 30 μM. […] Compounds that facilitate disruption of a K-Ras:RAF complex were identified as those eliciting a decrease in the TR-FRET ratio relative to DMSO control wells.

For experiment [2], the target named is NRAS Q61R (Homo sapiens, UniProt P01111+P62937, Q61R). Described as above. Format: biochemical. As to conditions: read-out: NRAS Q61R FRET data IC50. The protocol: as §1, §2, §3, §4
Sequence of NRAS Q61R (P01111 whole entry Q61R): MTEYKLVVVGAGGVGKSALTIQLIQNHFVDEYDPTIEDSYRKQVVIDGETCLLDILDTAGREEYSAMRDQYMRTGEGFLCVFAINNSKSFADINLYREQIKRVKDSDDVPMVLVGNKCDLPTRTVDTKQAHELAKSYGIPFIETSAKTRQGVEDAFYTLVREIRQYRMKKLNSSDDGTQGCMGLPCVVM
Sequence of NRAS Q61R (P62937 whole entry): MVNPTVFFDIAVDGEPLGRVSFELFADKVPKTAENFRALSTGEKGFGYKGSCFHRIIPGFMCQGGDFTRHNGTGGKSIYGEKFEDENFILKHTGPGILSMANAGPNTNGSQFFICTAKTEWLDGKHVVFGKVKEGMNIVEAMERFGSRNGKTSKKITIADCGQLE
Experiment [3] relates to NCI-H358 (K-Ras G12C). The experiment in a line: CellTiter-Glo Cell Viability Assay. The conditions noted are these: Homo sapiens, NCI-H358, 120 h; H358, 5-day treatment. The experiment is classed as cell-based. The procedure: Determination of Cell Viability in RAS Mutant Cancer Cell Lines
Protocol: CellTiter-Glo® Cell Viability Assay
Note—The following protocol describes a procedure for monitoring cell viability of K-Ras mutant cancer cell lines in response to a compound of the invention. Other RAS isoforms may be employed, though the number of cells to be seeded will vary based on cell line used.
Test compounds (132.5 nl) were directly dispensed into the assay plates containing cells. […] On day 5, assay plates and their contents were equilibrated to room temperature for approximately 30 minutes. […] Luminescence was measured using the PerkinElmer Enspire. Data were normalized by the following: (Sample signal/Avg. DMSO)*100. The data were fit using a four-parameter logistic fit.

Experiment [4] has as its target KRAS Q61H (Homo sapiens, UniProt P01116+P62937, Q61H). Put plainly: Disruption of BRAF RBD interaction with K-Ras (FRET / MOA assay). The experiment is classed as biochemical. As to conditions: read-out: KRAS Q61H FRET data IC50. The protocol: as §1, §2, §3, §4
The target in experiment [5] is KRAS G12C (Homo sapiens, UniProt P01116+P62937, G12C). The description is as above. The experiment is classed as biochemical. The protocol:
as §1, §2, §3, §4

Setting [6] is: read-out: KRAS G12C FRET data IC50.

SMILES strings stand for the structures. Like-named read-outs stand apart in the source and are kept apart here.

Sequence of KRAS Q61H (P01116 1-188 isoform P01116-2 Q61H): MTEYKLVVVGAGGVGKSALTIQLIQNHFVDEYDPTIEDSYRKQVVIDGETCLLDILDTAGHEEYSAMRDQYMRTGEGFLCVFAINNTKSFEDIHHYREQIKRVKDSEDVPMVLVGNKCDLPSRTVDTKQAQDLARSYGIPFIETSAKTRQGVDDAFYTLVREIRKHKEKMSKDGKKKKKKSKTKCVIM
Sequence of KRAS Q61H (P62937 whole entry): as the sequence (P62937 whole entry) above
Sequence of KRAS G12C (P01116 1-188 isoform P01116-2 G12C): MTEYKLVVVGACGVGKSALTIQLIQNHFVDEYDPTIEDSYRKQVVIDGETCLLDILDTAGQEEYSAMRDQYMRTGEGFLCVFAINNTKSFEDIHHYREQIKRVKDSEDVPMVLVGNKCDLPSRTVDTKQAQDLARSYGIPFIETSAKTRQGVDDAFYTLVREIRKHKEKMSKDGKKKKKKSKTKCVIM
Sequence of KRAS G12C (P62937 whole entry): as the sequence (P62937 whole entry) above
Sequence of NRAS Q61K (P01111 whole entry Q61K): as the sequence (P01111 whole entry Q61R) above, with R61K counted along it
Sequence of NRAS Q61K (P62937 whole entry): as the sequence (P62937 whole entry) above

`CCn1c(-c2cccnc2[C@H](C)OC)c2c3cc(ccc31)-c1csc(n1)C[C@H](NC(=O)[C@H](C(C)C)N(C)C(=O)N1CCN(C(C)=O)CC1)C(=O)N1CCC[C@H](N1)C(=O)OCC(C)(C)C2` (atropisomer, axis not shown) [Compound A291]: the results for the IC50 in experiment [1], in experiment [2] and in experiment [3] were 10 to 100 nM, 10 to 100 nM and below 10 nM, respectively.

On to `CCn1c(-c2cccnc2[C@H](C)OC)c2c3cc(ccc31)-c1csc(n1)C[C@H](NC(=O)[C@H](C(C)C)N(C)C(=O)N1CC[C@@H]1C)C(=O)N1CCC[C@H](N1)C(=O)OCC(C)(C)C2` (atropisomer, axis not shown) [Compound A304], for which the IC50 in experiment [1] was 10 to 100 nM; in experiment [2], 10 to 100 nM; in experiment [3] it was below 10 nM.

Regarding `CCn1c(-c2cccnc2[C@H](C)OC)c2c3cc(ccc31)-c1csc(n1)C[C@H](NC(=O)[C@H](C(C)C)N(C)C(=O)N1CCC1)C(=O)N1CCC[C@H](N1)C(=O)OCC(C)(C)C2` (atropisomer, axis not shown) [Compound A399], the values for the IC50 in experiment [1], in experiment [2] and in experiment [3] were 10 to 100 nM, 10 to 100 nM and below 10 nM, respectively.

For the compound `CCn1c(-c2cccnc2[C@H](C)OC)c2c3cc(ccc31)-c1cc(O)cc(c1)C[C@H](NC(=O)[C@H](C(C)C)N(C)C(=O)[C@@H]1OCC[C@@H]1c1ccccc1)C(=O)N1CCC[C@H](N1)C(=O)OCC(C)(C)C2` (atropisomer, axis not shown) [Compound A415], the IC50 in experiment [1] and in experiment [2] was 10 to 100 nM throughout.

With `CCn1c(-c2cccnc2[C@H](C)OC)c2c3cc(ccc31)-c1csc(n1)C[C@H](NC(=O)[C@H](C(C)C)N(C)C(=O)N(C)N(C)C)C(=O)N1CCC[C@H](N1)C(=O)OCC(C)(C)C2` (atropisomer, axis not shown) [Compound A454], the IC50 in experiment [1] and in experiment [2] was 10 to 100 nM each time.

For `CCn1c(-c2cc(N3CCN(C)CC3)cnc2[C@H](C)OC)c2c3cc(ccc31)-c1csc(n1)C[C@H](NC(=O)[C@H](C(C)C)N(C)C(=O)N1CC(OC)C1)C(=O)N1CCC[C@H](N1)C(=O)OCC(C)(C)C2` (atropisomer, axis not shown) [Compound A466], the IC50 is 10 to 100 nM in experiment [1], 10 to 100 nM in experiment [2] and below 10 nM in experiment [3].

As for `CCn1c(-c2cccnc2[C@H](C)OC)c2c3cc(ccc31)-c1csc(n1)C[C@H](NC(=O)[C@H](C(C)C)N(C)C(=O)N1CCOC3(COC3)C1)C(=O)N1CCC[C@H](N1)C(=O)OCC(C)(C)C2` (atropisomer, axis not shown) [Compound A475], the IC50 in experiment [1] and in experiment [2] was 10 to 100 nM each time.

In the case of `CCn1c(-c2cccnc2[C@H](C)OC)c2c3cc(ccc31)-c1csc(n1)C[C@H](NC(=O)[C@H](C(C)C)N(C)C(=O)N1CC(Cc3cnn(C)c3)C1)C(=O)N1CCC[C@H](N1)C(=O)OCC(C)(C)C2` (atropisomer, axis not shown) [Compound A500], the IC50 in experiment [1] was 10 to 100 nM; in experiment [2] it was 10 to 100 nM; in experiment [3], below 10 nM.

As for `CCn1c(-c2cccnc2[C@H](C)OC)c2c3cc(ccc31)-c1csc(n1)C[C@H](NC(=O)[C@H](C(C)C)N(C)C(=O)N1C[C@@H]3CCN(C)C[C@@H]31)C(=O)N1CCC[C@H](N1)C(=O)OCC(C)(C)C2` (atropisomer, axis not shown) [Compound A516], the IC50 in experiment [4] is 1000 to 10000 nM.

In the case of `CCn1c(-c2cccnc2[C@H](C)OC)c2c3cc(ccc31)-c1csc(n1)C[C@H](NC(=O)[C@H](C(C)C)N(C)C(=O)N1C[C@H]3CCN(C)C[C@H]31)C(=O)N1CCC[C@H](N1)C(=O)OCC(C)(C)C2` (atropisomer, axis not shown) [Compound A517], the IC50 in experiment [4] was in the range of 1000 to 10000 nM.

With `CCn1c(-c2cccnc2[C@H](C)OC)c2c3cc(ccc31)-c1csc(n1)C[C@H](NC(=O)[C@H](C(C)C)N(C)C(=O)N1CCN3C(=O)CN(C)C[C@@H]3C1)C(=O)N1CCC[C@H](N1)C(=O)OCC(C)(C)C2` (atropisomer, axis not shown) [Compound A536], the IC50 in experiment [1] was 10 to 100 nM; in experiment [2], 10 to 100 nM; in experiment [3] it was below 10 nM.

As for `CCn1c(-c2cccnc2[C@H](C)OC)c2c3cc(ccc31)-c1csc(n1)C[C@H](NC(=O)[C@H](C(C)C)N(C)C(=O)N1CCC13COC3)C(=O)N1CCC[C@H](N1)C(=O)OCC(C)(C)C2` (atropisomer, axis not shown) [Compound A560], the IC50 in experiment [1] and in experiment [2] was 10 to 100 nM throughout.

As to `CCn1c(-c2cccnc2[C@H](C)OC)c2c3cc(ccc31)-c1csc(n1)C[C@H](NC(=O)[C@H](C(C)C)N(C)C(=O)N1CCC3(COC3)C1)C(=O)N1CCC[C@H](N1)C(=O)OCC(C)(C)C2` (atropisomer, axis not shown) [Compound A561], the IC50 in experiment [1] is 10 to 100 nM; in experiment [2], 10 to 100 nM; in experiment [3], below 10 nM.

For the compound `CCn1c(-c2cccnc2[C@H](C)OC)c2c3cc(ccc31)-c1cc(O)cc(c1)C[C@H](NC(=O)[C@H](C(C)C)N(C)C(=O)[C@@H]1OCC[C@H]1c1ccccc1)C(=O)N1CCC[C@H](N1)C(=O)OCC(C)(C)C2` (atropisomer, axis not shown) [Compound A584], the IC50 in experiment [1] and in experiment [2] was 10 to 100 nM each time.

In the case of `CO[C@@H](C)c1ncccc1-c1c2c3cc(ccc3n1C)-c1cc(O)cc(c1)C[C@H](NC(=O)[C@H](C(C)C)N(C)C(C)=O)C(=O)N1CCC[C@H](N1)C(=O)OCC(C)(C)C2` (racemic) [Compound A104], the IC50 in experiment [4] was 1000 to 10000 nM; in experiment [2], above 10000 nM.

For the compound `CCn1c(-c2cccnc2[C@H](C)OC)c2c3cc(ccc31)-c1cc(O)cc(c1)C[C@H](NC(=O)[C@H](C(C)C)N(C)C(=O)C1(C(=O)O)CC1)C(=O)N1CCC[C@H](N1)C(=O)OCC(C)(C)C2` (racemic) [Compound A150], the IC50 in experiment [4] was 1000 to 10000 nM; in experiment [2] it was above 10000 nM.

Regarding `CCn1c(-c2cccnc2[C@H](C)OC)c2c3cc(ccc31)-c1cc(cc3nc[nH]c13)C[C@H](NC(=O)[C@H](C(C)C)N(C)C(C)=O)C(=O)N1CCC[C@H](N1)C(=O)OCC(C)(C)C2` (racemic) [Compound A153], in experiment [5] (setting [6]), the IC50 is above 10000 nM.

Compound `CCn1c(-c2cccnc2[C@H](C)OC)c2c3cc(ccc31)-c1cc(O)cc(c1)C[C@H](NS(=O)(=O)N1CCOCC1)C(=O)N1CCC[C@H](N1)C(=O)OCC(C)(C)C2` (racemic) [Compound A194] yielded an IC50 in experiment [5] above 10000 nM.

In the case of `CCn1c(-c2cccnc2[C@H](C)OC)c2c3cc(ccc31)-c1cc(O)cc(c1)C[C@H](NS(=O)(=O)c1ccc(O)cc1)C(=O)N1CCC[C@H](N1)C(=O)OCC(C)(C)C2` (racemic) [Compound A195], the IC50 in experiment [5] (setting [6]) is above 10000 nM.

Consider `CCn1c(-c2cccnc2[C@H](C)OC)c2c3cc(ccc31)-c1cc(O)cc(c1)C[C@H](NS(=O)(=O)C1CC1)C(=O)N1CCC[C@H](N1)C(=O)OCC(C)(C)C2` (racemic) [Compound A196], for which, in experiment [5] (setting [6]), the IC50 is above 10000 nM.

For the compound `CCn1c(-c2cccnc2[C@H](C)OC)c2c3cc(ccc31)-c1cc(O)cc(c1)C[C@H](NS(=O)(=O)c1cn(C)c(C)n1)C(=O)N1CCC[C@H](N1)C(=O)OCC(C)(C)C2` (racemic) [Compound A197], the IC50 in experiment [5] (setting [6]) was above 10000 nM.

Consider `CCn1c(-c2cccnc2[C@H](C)OC)c2c3cc(ccc31)-c1cc(O)cc(c1)C[C@H](NS(=O)(=O)c1ccc(OC)cc1OC)C(=O)N1CCC[C@H](N1)C(=O)OCC(C)(C)C2` (racemic) [Compound A198], for which the IC50 in experiment [5] was above 10000 nM.

Turning to `CCn1c(-c2cccnc2[C@H](C)OC)c2c3cc(ccc31)-c1cc(O)cc(c1)C[C@H](NS(=O)(=O)CC1CC1)C(=O)N1CCC[C@H](N1)C(=O)OCC(C)(C)C2` (racemic) [Compound A200], the IC50 in experiment [5] (setting [6]) is above 10000 nM.

In experiment [5], `CCn1c(-c2cccnc2[C@H](C)OC)c2c3cc(ccc31)-c1csc(n1)C[C@H](NC(=O)[C@H](C(C)C)N1CCC3(CN(C(=O)OC)C3)C1=O)C(=O)N1CCC[C@H](N1)C(=O)OCC(C)(C)C2` (racemic) [Compound A235] returned an IC50 above 10000 nM.

As for `CCn1c(-c2cccnc2[C@H](C)OC)c2c3cc(ccc31)-c1csc(n1)C[C@H](NC(=O)[C@H](C(C)C)N(C)C(=O)[C@H]1CCN(S(C)(=O)=O)C1)C(=O)N1CCC[C@H](N1)C(=O)OCC(C)(C)C2` (racemic) [Compound A237], the IC50 in experiment [4] lay within 1000 to 10000 nM.

For the compound `CCn1c(-c2cccnc2[C@H](C)OC)c2c3cc(ccc31)-c1csc(n1)C[C@H](NC(=O)[C@H](C(C)C)N(C)C(=O)N1CCC(C(=O)C(F)(F)F)CC1)C(=O)C1CCC[C@H](N1)C(=O)OCC(C)(C)C2` [Compound A422], the IC50 in experiment [1] and in experiment [2] was 10 to 100 nM each time.

The values above are taken from patent US20230374035A1, “RAS INHIBITORS” (Revolution Medicines, Inc., priority 2019, published 2023).
